A short description of series [1]: in vivo. The settings on record: rat, plasma, po.
Series [2] can be described thus: Oral bioavailability in rat. The settings on record: in vivo. The series is classed as ADME, organism-based.
Series [3] can be described thus: in vivo. The conditions noted are these: rat, plasma, po, 10 mg/kg.
Series [4] can be described thus: in vivo. The conditions noted are these: rat, plasma, po. The source holds these as a separate data set.
The nature of series [5]: in vivo. The conditions noted are these: rat, plasma, iv.

These results are taken from ChEMBL document CHEMBL1131475, “Discovery of ritonavir, a potent inhibitor of HIV protease with high oral bioavailability and clinical efficacy” (J Med Chem, 1998).

Turning to `CCc1nc(CN(C)C(=O)NC(C(=O)N[C@@H](Cc2ccccc2)[C@@H](O)C[C@H](Cc2ccccc2)NC(=O)OCc2cncs2)C(C)C)cs1` (stereo partly drawn), the Tmax in “in vivo [1]” is 60 min. Besides, the F in series [2] amounted to 167%. The compound further yielded a Cmax in the series “in vivo [3]” of 5120 nM. This compound also had an AUC in “in vivo [4]” of 9370 ng·h/mL.

Take `CC(C)c1nc(CCC(=O)NC(C(=O)N[C@@H](Cc2ccccc2)C[C@H](O)[C@H](Cc2ccccc2)NC(=O)OCc2cccnc2)C(C)C)cs1` (stereo partly drawn): the Tmax in the series “in vivo [1]” was determined as 6 min. In addition, the half-life in “in vivo [5]” was 16.8 min. In series [2], the bioavailability amounted to 3.4%. The same compound came in with a peak concentration (Cmax) in the series “in vivo [3]” of 380 nM. In “in vivo [4]”, this compound registered an AUC of 170 ng·h/mL.

As for `CC(C)c1cccc(COC(=O)NC(C(=O)N[C@@H](Cc2ccccc2)[C@@H](O)C[C@H](Cc2ccccc2)NC(=O)OCc2cccnc2)C(C)C)n1` (stereo partly drawn), the Tmax in “in vivo [1]” was 15 min. The compound further gave a half-life in the series “in vivo [5]” of 78.6 min. The same compound displayed a bioavailability in series [2] of 8.3%. For the same compound, the Cmax in “in vivo [3]” is 310 nM. The compound further came in with an AUC in the series “in vivo [4]” of 310 ng·h/mL.

Turning to `CCc1nc(COC(=O)NC(C(=O)N[C@@H](Cc2ccccc2)C[C@H](O)[C@H](Cc2ccccc2)NC(=O)OCc2cccnc2)C(C)C)cs1` (stereo partly drawn), the Tmax in the series “in vivo [1]” stood at 9 min. Moreover, in “in vivo [5]”, the half-life was 45 min. Also, the bioavailability in series [2] worked out at 7.4%. In the series “in vivo [3]”, this compound came in with a Cmax of 1300 nM. Further, the AUC in the series “in vivo [4]” was found to be 330 ng·h/mL.

As for `CCc1cccc(COC(=O)NC(C(=O)N[C@@H](Cc2ccccc2)C[C@H](O)[C@H](Cc2ccccc2)NC(=O)OCc2cccnc2)C(C)C)n1` (stereo partly drawn), the Tmax in “in vivo [1]” is 12 min. In addition, in “in vivo [5]”, the half-life is 23.4 min. This compound also showed a bioavailability in series [2] of 8%. The compound also showed a Cmax in the series “in vivo [3]” of 590 nM. Also, in the series “in vivo [4]”, the AUC turned out to be 470 ng·h/mL.

As for `COc1ccc(COC(=O)NC(C(=O)N[C@@H](Cc2ccccc2)C[C@H](O)[C@H](Cc2ccccc2)NC(=O)OCc2cccnc2)C(C)C)nc1` (stereo partly drawn), in “in vivo [1]”, the Tmax was 6 min. Besides, the half-life in the series “in vivo [5]” was 15 min. Also, in series [2], the bioavailability is 1.3%. In addition, the Cmax in “in vivo [3]” is 290 nM. Moreover, in the series “in vivo [4]”, the AUC is 50 ng·h/mL.

Consider `CCc1ncc(COC(=O)NC(C(=O)N[C@@H](Cc2ccccc2)[C@@H](O)C[C@H](Cc2ccccc2)NC(=O)OCc2cccnc2)C(C)C)s1` (stereo partly drawn), for which, in “in vivo [1]”, the Tmax came to 16.8 min. In “in vivo [5]”, this compound had a half-life of 73.8 min. The compound further showed a bioavailability in series [2] of 9.2%. Further, the highest level in “in vivo [3]” (Cmax) was 340 nM. This compound displayed an AUC in the series “in vivo [4]” of 490 ng·h/mL.

Compound `Cc1cccc(COC(=O)NC(C(=O)N[C@@H](Cc2ccccc2)[C@@H](O)C[C@H](Cc2ccccc2)NC(=O)OCc2ccoc2)C(C)C)n1` (stereo partly drawn) had a half-life in “in vivo [5]” of 13.2 min. Besides, the bioavailability in series [2] worked out at 0%.

With `COCc1nc(CN(C)C(=O)NC(C(=O)N[C@@H](Cc2ccccc2)C[C@H](O)[C@H](Cc2ccccc2)NC(=O)OCc2cccnc2)C(C)C)cs1` (stereo partly drawn), the Tmax in “in vivo [1]” was found to be 12 min. Also, the half-life in “in vivo [5]” was 23.4 min. This compound also showed a bioavailability in series [2] of 8%. Further, the Cmax in “in vivo [3]” came to 1350 nM. In the series “in vivo [4]”, this compound returned an AUC of 490 ng·h/mL.

`CC(C)c1nc(CCC(=O)NC(C(=O)N[C@@H](Cc2ccccc2)[C@@H](O)C[C@H](Cc2ccccc2)NC(=O)OCc2cccnc2)C(C)C)cs1` (stereo partly drawn): the Tmax in the series “in vivo [1]” came to 6 min. For the same compound, the half-life in “in vivo [5]” is 54.6 min. In series [2], this compound had a bioavailability of 9%. In the series “in vivo [3]”, this compound had a peak concentration (Cmax) of 320 nM. Further, the exposure (AUC) in “in vivo [4]” was 410 ng·h/mL.

On to `Cc1ccc(COC(=O)NC(C(=O)N[C@@H](Cc2ccccc2)C[C@H](O)[C@H](Cc2ccccc2)NC(=O)OCc2cccnc2)C(C)C)cn1` (stereo partly drawn), for which the Tmax in “in vivo [1]” was 9 min. Moreover, the half-life in the series “in vivo [5]” was 39 min. In series [2], this compound had a bioavailability of 6.4%. This compound also had a Cmax in the series “in vivo [3]” of 780 nM. Also, in “in vivo [4]”, the AUC was 270 ng·h/mL.

Regarding `COCc1ncc(COC(=O)NC(C(=O)N[C@@H](Cc2ccccc2)[C@@H](O)C[C@H](Cc2ccccc2)NC(=O)OCc2cccnc2)C(C)C)s1` (stereo partly drawn), the Tmax in the series “in vivo [1]” turned out to be 9 min. The same compound gave a half-life in “in vivo [5]” of 22.2 min. In series [2], this compound registered a bioavailability of 11%. For the same compound, the Cmax in “in vivo [3]” was determined as 380 nM. In “in vivo [4]”, this compound registered an AUC of 420 ng·h/mL.

As to `Cc1cncc(COC(=O)NC(C(=O)N[C@@H](Cc2ccccc2)C[C@H](O)[C@H](Cc2ccccc2)NC(=O)OCc2cccnc2)C(C)C)c1` (stereo partly drawn), the Tmax in the series “in vivo [1]” worked out at 9 min. Besides, the half-life in “in vivo [5]” was 22.8 min. In series [2], the bioavailability came out at 1.6%. The compound further showed a Cmax in the series “in vivo [3]” of 330 nM. Besides, the AUC in “in vivo [4]” was found to be 70 ng·h/mL.

As for `CC(C)c1csc(COC(=O)NC(C(=O)N[C@@H](Cc2ccccc2)C[C@H](O)[C@H](Cc2ccccc2)NC(=O)OCc2cncs2)C(C)C)n1` (stereo partly drawn), the Tmax in “in vivo [1]” was determined as 55.2 min. In “in vivo [5]”, the half-life is 30 min. In series [2], this compound registered an F of 151%. Further, in the series “in vivo [3]”, the Cmax came to 5800 nM. Moreover, the AUC in the series “in vivo [4]” was determined as 14300 ng·h/mL.

Consider `Cc1cnc(COC(=O)NC(C(=O)N[C@@H](Cc2ccccc2)[C@@H](O)C[C@H](Cc2ccccc2)NC(=O)OCc2cccnc2)C(C)C)cn1` (stereo partly drawn), for which, in “in vivo [1]”, the Tmax was 12 min. The half-life in the series “in vivo [5]” was 10.8 min. Moreover, in series [2], the bioavailability stood at 2.8%. This compound showed a Cmax in the series “in vivo [3]” of 350 nM. For the same compound, the AUC in the series “in vivo [4]” worked out at 70 ng·h/mL.

For the compound `CC(NC(=O)OCc1csc(C(C)C)n1)C(=O)N[C@@H](Cc1ccccc1)C[C@H](O)[C@H](Cc1ccccc1)NC(=O)OCc1cncs1` (stereo partly drawn), in the series “in vivo [1]”, the Tmax was 24 min. In addition, in “in vivo [5]”, the half-life is 31.8 min. Also, in series [2], the bioavailability came to 19%. This compound also showed a Cmax in the series “in vivo [3]” of 1090 nM. Moreover, in the series “in vivo [4]”, the AUC stood at 1230 ng·h/mL.

Consider `CC(C)C(NC(=O)N(C)Cc1ccccn1)C(=O)N[C@@H](Cc1ccccc1)[C@@H](O)C[C@H](Cc1ccccc1)NC(=O)OCc1cncnc1` (stereo partly drawn), for which the Tmax in the series “in vivo [1]” is 12 min. In “in vivo [5]”, this compound showed a half-life of 21 min. This compound had a bioavailability in series [2] of 13%. In addition, the concentration in the series “in vivo [3]” peaked (Cmax) at 2910 nM. The compound further displayed an AUC in “in vivo [4]” of 870 ng·h/mL.

`CC(C)C(NC(=O)OCc1ccccn1)C(=O)N[C@@H](Cc1ccccc1)[C@@H](O)C[C@H](Cc1ccccc1)NC(=O)OCc1cncnc1` (stereo partly drawn): the Tmax in “in vivo [1]” came to 12 min. Besides, the half-life in the series “in vivo [5]” is 30 min. This compound also came in with a bioavailability in series [2] of 6.7%. Also, in “in vivo [3]”, the Cmax came to 1180 nM. Also, the AUC in “in vivo [4]” was 280 ng·h/mL.

On to `CC(C)C(NC(=O)OCc1csc(N2CCOCC2)n1)C(=O)N[C@@H](Cc1ccccc1)[C@@H](O)C[C@H](Cc1ccccc1)NC(=O)OCc1cccnc1` (stereo partly drawn), for which, in the series “in vivo [1]”, the Tmax is 9 min. This compound also showed a half-life in the series “in vivo [5]” of 21 min. The bioavailability in series [2] turned out to be 1.1%. The highest level in “in vivo [3]” (Cmax) was 90 nM. Further, the AUC in “in vivo [4]” is 30 ng·h/mL.

In “in vivo [5]”, `CC(C)C(NC(=O)OCc1csc(N2CCOCC2)n1)C(=O)N[C@@H](Cc1ccccc1)C[C@H](O)[C@H](Cc1ccccc1)NC(=O)OCc1cccnc1` (stereo partly drawn) showed a half-life of 19.2 min. The bioavailability in series [2] came out at 0%.

For `Cc1cncc(CN(C)C(=O)NC(C(=O)N[C@@H](Cc2ccccc2)C[C@H](O)[C@H](Cc2ccccc2)NC(=O)OCc2cccnc2)C(C)C)c1` (stereo partly drawn), the Tmax in the series “in vivo [1]” was determined as 6 min. In “in vivo [5]”, this compound gave a half-life of 31.8 min. This compound also gave a bioavailability in series [2] of 9.7%. This compound also had a Cmax in “in vivo [3]” of 690 nM. In “in vivo [4]”, this compound registered an area under the curve (AUC) of 310 ng·h/mL.

For the compound `CC(C)C(NC(=O)N(C)Cc1csc(C2CC2)n1)C(=O)N[C@@H](Cc1ccccc1)[C@@H](O)C[C@H](Cc1ccccc1)NC(=O)OCc1cncs1` (stereo partly drawn), the Tmax in “in vivo [1]” stood at 138 min. For the same compound, the half-life in the series “in vivo [5]” is 31.8 min. Further, the F in series [2] turned out to be 175%. Besides, the Cmax in “in vivo [3]” turned out to be 3980 nM. Besides, in the series “in vivo [4]”, the AUC turned out to be 10700 ng·h/mL.
